Assay results taken from BigSolDB 2.1.

Conditions: in ethylbenzene

CCCCCCCCCCCCCCCCCCCCCCC
Conditions	solubility (mole fraction)
271.13 K	0.00366
280.09 K	0.0136
285.88 K	0.0295
288.62 K	0.0415
292.61 K	0.0698
295.02 K	0.094
297.34 K	0.124
298.77 K	0.147
300.52 K	0.173
300.9 K	0.184

CCCCCCCCCCCCCCCCCCCCCC
Conditions	solubility (mole fraction)
268.67 K	0.00443
274.22 K	0.00854
277.47 K	0.0123
281.39 K	0.0202
284.43 K	0.0294
286.56 K	0.0381
289.51 K	0.0539
291.7 K	0.0702
293.53 K	0.0865
295.46 K	0.107
296.91 K	0.127
297.87 K	0.143
298.81 K	0.256
299.86 K	0.171
300.54 K	0.186
301.25 K	0.198
302.03 K	0.213
302.44 K	0.226

CCCCCCCCCCCCCCCCCCCCC
Conditions	solubility (mole fraction)
262.5 K	0.0047
268.03 K	0.01
275.53 K	0.026
278.56 K	0.0366
281.9 K	0.0549
284.95 K	0.0739
286.6 K	0.095
288.45 K	0.115
290 K	0.14
291.15 K	0.164
293.16 K	0.201
294.57 K	0.235
295.72 K	0.263

CCCCCCCCCCCCCCCCCCCC
Conditions	solubility (mole fraction)
266.52 K	0.00955
270.33 K	0.0149
272.73 K	0.0195
275.75 K	0.0265
278.21 K	0.0364
281.94 K	0.0536
282.8 K	0.0614
284.97 K	0.0791
286.15 K	0.0904
287.19 K	0.104
288.25 K	0.116
289.67 K	0.136
290.53 K	0.151
291.27 K	0.164
292.34 K	0.179
292.97 K	0.191
293.9 K	0.204

CCCCCCCCCCCCCCCCCCCCCCCC
Conditions	solubility (mole fraction)
272.02 K	0.00269
279.76 K	0.00689
285.62 K	0.0142
289.1 K	0.0224
292.74 K	0.0346
296 K	0.0511
299.02 K	0.0732
301.52 K	0.0997
303.08 K	0.117
304.88 K	0.144
306.15 K	0.163
